Data from US10858406B2 (priority 2014, dated 2020).

Test system: potassium ion channel current of the DRG neurons
Format: cell-based, SD rats
Details: 5 mM

Nc1ccncc1 [4AP, 4-aminopyridine]
Current inhibition rate: 0.338 | Current recorded after loading: 0.9766 nA
